The text below walks through data of US6846818B2, “Selective inhibitors of cyclooxygenase-2” (Pfizer Inc., priority 2002, dated 2005).

The target of one assay is T1, COX-2 (Homo sapiens, UniProt P35354).
T1 sequence (P35354 18-604): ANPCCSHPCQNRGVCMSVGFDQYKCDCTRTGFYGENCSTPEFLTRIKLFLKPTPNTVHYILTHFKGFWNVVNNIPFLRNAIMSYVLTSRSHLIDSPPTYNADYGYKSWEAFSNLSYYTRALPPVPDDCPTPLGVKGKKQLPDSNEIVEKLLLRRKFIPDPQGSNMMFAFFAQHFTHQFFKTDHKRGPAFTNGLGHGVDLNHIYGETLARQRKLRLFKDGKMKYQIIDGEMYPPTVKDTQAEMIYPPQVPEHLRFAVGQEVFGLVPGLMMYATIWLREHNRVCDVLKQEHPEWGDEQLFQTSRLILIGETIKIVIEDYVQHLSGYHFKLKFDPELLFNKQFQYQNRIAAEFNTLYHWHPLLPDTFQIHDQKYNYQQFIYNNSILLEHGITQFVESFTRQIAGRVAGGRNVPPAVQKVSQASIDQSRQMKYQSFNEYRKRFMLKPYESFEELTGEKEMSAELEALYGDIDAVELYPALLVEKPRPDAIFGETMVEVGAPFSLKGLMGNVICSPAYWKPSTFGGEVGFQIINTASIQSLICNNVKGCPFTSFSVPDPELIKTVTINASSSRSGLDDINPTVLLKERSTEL
Description: Cell-based COX-2 inhibition (canine, feline or human assays). The conditions noted are these: from IC50 COX-1 vs COX-2. The protocol: The human cell based COX-2 assay can be carried out as previously described (Moore et al., Inflam. Res., 45, 54, 1996). Confluent human umbilical vein endothelial cells (HUVECs, Morinaga) in a 96-well flat bottom plate can be washed with 80 ml of RPMI1640 containing 2% FBS and incubated with hIL-1β (final concentration 300 U/ml, R & D Systems) at 37° C. for 24 hours. After washing, the activated HUVECs can be incubateed with test compound (final concentration; 0.1 nM-1 μM) dissolved in DMSO (final concentration; less than 0.01%) at 37° C. for 20 minutes and stimulated with A23187 (final concentration […]) in Hanks buffer containing 0.2% BSA, 20 mM Hepes at 37° C. for 15 minutes. 6-Keto-PGF1α, stable metabolite of PGI2, in the supernatant can be quantitated by using a radioimmunoassay method (antibody; Preseptive Diagnostics, SPA; Amersham).
A canine histocytoma (macrophage-like) cell line from the American Type Culture Collection designated as DH82, can be used in setting up the protocol for evaluating the COX-2 inhibition activity of various test drug compounds. […] The EIA can be performed for prostaglandin E2 (PGE2) and the pg/mL concentration of PGE2 can be calculated from the standard line included on each plate. […] The results are averaged and a single COX-1:COX-2 ratio is calculated. […]

For another assay, the target named is T2, COX-1 (Homo sapiens, UniProt P23219).
T2 construct: endogenous in cells; host or cells: one of: human washed platelets, canine washed platelets, or feline/canine/human whole blood
T2 sequence (P23219 24-599): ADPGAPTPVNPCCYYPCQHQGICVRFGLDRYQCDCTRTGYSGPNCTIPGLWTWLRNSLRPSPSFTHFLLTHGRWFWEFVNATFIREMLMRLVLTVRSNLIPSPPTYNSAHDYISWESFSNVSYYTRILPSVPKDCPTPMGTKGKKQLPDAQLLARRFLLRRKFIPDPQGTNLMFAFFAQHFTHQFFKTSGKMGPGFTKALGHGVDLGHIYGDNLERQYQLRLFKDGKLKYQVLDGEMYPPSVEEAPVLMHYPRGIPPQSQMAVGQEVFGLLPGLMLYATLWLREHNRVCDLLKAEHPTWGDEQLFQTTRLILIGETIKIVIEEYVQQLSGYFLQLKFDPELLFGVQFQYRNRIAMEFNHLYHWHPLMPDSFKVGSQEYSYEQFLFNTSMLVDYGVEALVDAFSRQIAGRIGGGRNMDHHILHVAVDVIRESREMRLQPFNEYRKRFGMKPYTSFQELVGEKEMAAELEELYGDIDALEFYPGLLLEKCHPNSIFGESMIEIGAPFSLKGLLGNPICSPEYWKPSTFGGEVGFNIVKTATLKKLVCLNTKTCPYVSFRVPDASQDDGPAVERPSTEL
Put plainly: Cell-based COX-1 inhibition. The note with it: assay/species not specified. The protocol: Human peripheral blood obtained from healthy volunteers can be diluted to 1/10 volume with 3.8% sodium citrate solution. The platelet-rich plasma immediately obtained can be washed with 0.14 M sodium chloride containing 12 mM Tris-HCl (pH 7.4) and 1.2 mM EDTA. Platelets can then be washed with platelet buffer (Hanks buffer (Ca free) containing 0.2% BSA and 20 mM Hepes). Finally, the human washed platelets (HWP) can be suspended in platelet buffer at the concentration of 2.85×10^8 cells/ml and stored at room temperature until use. The HWP suspension (70 μl aliquots, final 2.0×10^7 cells/ml) can be placed in a 96-well U bottom plate and 10 μl aliquots of 12.6 mM calcium chloride added. […] The reaction can be stopped by addition of EDTA (final 7.7 mM) and TxB2 in the supernatant quantitated by using a radioimmunoassay kit (Amersham) according to the manufacturer's procedure.
Test drug compounds can be solubilized and diluted the day before the assay can be to be conducted with 0.1 mL of DMSO/9.9 mL of Hank's balanced salts solution (HBSS) and stored overnight at 4° C. […] The pg/mL of TXB2 can be calculated from the standard line included on each plate, from which it can be possible to calculate the percent inhibition of COX-1 and the IC50 values for the test drug compounds. […]
COX-2 selectivity can be determined by ratio in terms of IC50 value of COX-1 inhibition to COX-2 inhibition. […]

What is called IC50 is the concentration that inhibits the measured activity by half. Read a low IC50 as greater potency. As for `Cc1cc(C)cc(NC(=O)N2C(=O)C(C(=O)c3cnccn3)c3cc(C)c(F)cc32)c1` (centres unmarked) [6-Fluoro-5-methyl-2-oxo-3-(pyrazine-2-carbonyl)-2,3-dihydro-indole-1-carboxylic acid (3,5-dimethyl-phenyl)-amide], the “selectivity for COX-2 (COX-1/COX-2 IC50)” value on COX-2 was “no selectivity for COX-2”. For the same molecule, the IC50 at COX-1 was greater than 150 µM.
